Test: gradient 5% acetonitrile 3 min, to 50% in 2 min, to 85% in 15 min, held 3 min, 100 µL/min
Settings: column: Zorbax Extend-C18 2.1 x 50 mm; eluents: water / acetonitrile, 0.1% formic acid
In short: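 Pure standards were analyzed in mixtures of ~100 molecules using HPLC coupled to a quadrupole time-of-flight mass spectrometer, in both positive and negative ionization mode. Separation used a Zorbax Extend-C18 column (2.1 × 50 mm, 1.8 μm) at 100 μL/min, with water and acetonitrile each containing 0.1% formic acid. Dead and dwell volumes were 40 μL and 900 μL, and data were collected over 3 months. Retention time was read from computationally picked adduct peaks, each inspected manually.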

RP-LC retention time [s] | Structure (SMILES)
877 | CCN1C(=O)c2cccnc2Sc2cc(NC(=O)C3CCCCC3)ccc21
892 | O=C(CCc1nc(CSc2nnc(-c3ccccc3)o2)no1)Nc1ccc(F)cc1
774 | CCOc1ccc(CNC(=O)c2ccc3c(c2)N(C)C(=O)C2CCCCN32)cc1OC (centres undefined)
1030 | Cc1ccc(CNC(=O)C2(C)CCN(S(=O)(=O)c3ccc(Br)cc3)CC2)cc1
945 | Cc1sc(-c2noc(C3CC3)n2)cc1S(=O)(=O)N1CCC(C(=O)NCc2ccco2)CC1
658 | COc1ccc(-c2cc(C(=O)O)c3ccccc3n2)cc1OC
744 | O=C(CCCc1nnc2c(=O)n(-c3ccc(Cl)cc3)ccn12)NCCc1c[nH]c2ccccc12
1170 | O=S(=O)(c1ccc(Br)cc1)N1CCc2nc(-c3ccc(F)cc3)ncc2C1
780 | CCn1c(=O)c2c(cc(C)n2C)n(CC(=O)Nc2ccc(F)cc2)c1=O
1010 | O=C(Cc1cccs1)N1CCN(S(=O)(=O)c2cc(-c3noc(C4CCC4)n3)cs2)CC1
646 | COc1cc(OC)cc(C(=O)N2CCN=C2N2CCCCC2)c1
604 | CCn1c(C2CCN(C(=O)c3ccoc3)C2)nc2cccnc21 (centres undefined)
855 | CC(Cc1ccco1)NC(=O)c1nc(Nc2ccc(F)cc2)c2ccccc2n1 (centres undefined)
883 | Cc1[nH]c(C(=O)N2CCN(c3cccc(Cl)c3)CC2)c(C)c1S(=O)(=O)N1CCOCC1
659 | CCN1CCC(N(Cc2ccc3c(c2)OCO3)C(=O)Nc2ccc(OC)cc2OC)CC1
1060 | COC(=O)c1ccc2c(=O)n(-c3ccc(Cl)cc3)c(N3CCCC3)nc2c1
847 | CCOc1ccc(S(=O)(=O)N2CCCC(C(=O)NCCCOC)C2)cc1C (centres undefined)
837 | O=C(Cc1cccc(C(F)(F)F)c1)Nc1cccn2ncnc12
728 | CC(NC(=O)CCNc1c(-c2cccc(F)c2)nc2cnccn12)c1cccs1 (centres undefined)
1130 | COc1cccc(-c2nn3c(COc4ccc(Br)cc4)nnc3s2)c1OC
936 | Cc1c(Cl)cccc1NC(=O)CSc1nnc2c3cc(-c4ccc(F)cc4)nn3ccn12
738 | Cc1ccccc1S(=O)(=O)N1CCC(n2cnnc2C(C)C)CC1

RP-LC retention time [s] | Structure (SMILES)
852 | Cc1nnc(-c2cc(C)n(CC(=O)Nc3ccc(C)c(Cl)c3)c2C)o1
747 | COC(=O)c1ncn2c1C(=O)N(c1ccc(C)cc1)C(C)(C(=O)NCc1ccc(C)cc1)C2 (centres undefined)
881 | CC(=O)N1c2ccc(S(=O)(=O)N3CCCCC3)cc2CC1C(=O)N1CCC(C)CC1 (centres undefined)
644 | CC(C(=O)N1CCN(Cc2ccccc2)CC1)N1C(=O)CCCc2ccccc21 (centres undefined)
805 | COCCNC(=O)C1CCN(c2nc3ccc(-c4ccc(OC)cc4)nc3s2)CC1
947 | COc1cc(N2CCN(S(=O)(=O)c3cccc(C(F)(F)F)c3)CC2)nc(OC)n1
988 | O=S(=O)(CCc1ccccc1)N1CCCn2nc(-c3cccs3)cc2C1
711 | Cc1ccc(-c2nc3cnccn3c2Nc2cccc(C(=O)O)c2)cc1
859 | CC(C)N(CCC(=O)c1ccc2ccccc2c1)Cc1ccccc1
638 | CC(=O)Oc1cc2c(C(=O)NCc3ccccn3)c(C)oc2c2ccccc12
769 | Cc1cc(C(F)(F)F)nn1CC(=O)N1CCC(c2noc(-c3ccccn3)n2)C1 (centres undefined)
599 | COc1ccc(Nc2ncc(C(=O)O)c3ccccc23)cc1
722 | CSc1ccccc1CN1CCC(CNC(=O)c2ccccc2Cl)CC1
949 | O=C(CN1C(=O)CC(c2ccccc2)=Nc2cccnc21)Nc1ccc(F)cc1F
618 | CCOc1ccc(N2CC(c3nc4ccccc4n3CCN3CCOCC3)CC2=O)cc1 (centres undefined)
572 | O=C(C1CCOC1)N1CCC(N(Cc2ccccc2)C2CCOCC2)CC1 (centres undefined)
810 | O=C(Cn1nc2c(Oc3ccc(Cl)cc3)nccn2c1=O)NC1CCCC1
635 | Cc1cc(N(C)C)n2nc(CN3CCN(c4cccc(Cl)c4)CC3)nc2n1
762 | CC(=O)Nc1c(C)noc1/C=C\c1ccc(S(=O)(=O)N2CCN(c3ncccn3)CC2)cc1
561 | CN(C)CC(=O)N1CCC(Oc2nccnc2N2CCOCC2)C1 (centres undefined)
1030 | O=C(CN1C(=O)C2CCCCN2c2ccc(S(=O)(=O)N3CCCCC3)cc21)NC1CCCCC1 (centres undefined)
850 | O=C(COc1ccccc1)N1CCN(C(=O)c2nnn3c2COC(c2ccccc2)C3)CC1 (centres undefined)

RP-LC retention time [s] | Structure (SMILES)
593 | Cc1cccc(Cl)c1NC(=O)Cn1ncc2c(N3CCN(c4ccccn4)CC3)ncnc21
772 | CCOC(=O)c1ccc(NC(=O)N(Cc2cc(=O)[nH]c3ccccc23)C(C)C)cc1
649 | CC(=O)Nc1nsc(N2CCC(C(=O)NCc3ccc(F)cc3)CC2)n1
761 | CCc1nc2c(NC(=O)c3cccs3)cccn2n1
653 | Cn1c(=O)c(=O)n(C)c2cc(NC(=O)c3cccs3)ccc21
905 | Cc1ccccc1-c1nnc(CSc2nnc(NC(=O)c3c(F)cccc3F)s2)o1
954 | O=C1c2ccccc2C(=O)N1c1ccc(OC(F)(F)F)cc1
695 | CN(C)CCOc1ccc2c(c1)C(=O)/C(=C\c1ncc([N+](=O)[O-])n1C)C2
704 | O=C(NCC1CCN(S(=O)(=O)C2CC2)CC1)c1cnc2ccccc2n1
843 | CCn1cc(-c2nc(CC(=O)NCc3ccccc3F)cs2)c2cccnc21
698 | CCOC(=O)Cc1ccc(NC(=O)Nc2cccn3cnnc23)cc1
902 | Cc1nc(-c2csc(S(=O)(=O)N3CCCC(C(=O)N4CCCCCC4)C3)c2)no1 (centres undefined)
618 | O=C(CCC(=O)N1CCSc2ccccc21)N1CCN(c2ccccn2)CC1
937 | CC(=O)N1CCCSc2ccc(S(=O)(=O)N(C)c3ccc(C)cc3)cc21
1190 | Cc1ccc(-c2nnc(Cc3nc(-c4ccc(Cl)cc4)no3)o2)cc1F
636 | O=C(Cn1cnc(-c2cccs2)cc1=O)NCCn1nc(-c2ccco2)ccc1=O
942 | CCn1cc(-c2nc(C)c(C(=O)N3CCCCCC3)s2)c2cccnc21
879 | COC(=O)c1c(NCc2ccccc2C(F)(F)F)c2cccc(Cl)c2[nH]c1=O
882 | CC(C)Cn1nc(CNC(=O)c2ccsc2)c2ccccc21
1030 | COC(=O)c1c(NC(=O)c2cc(C)no2)sc(C)c1C
701 | CC(=O)Nc1ccc(-n2cnc(C(=O)NC(C)c3ccc(F)cc3)c2)nc1 (centres undefined)
1020 | Cn1c(CNC(=O)CSc2nnc(-c3ccc4c(c3)OCO4)o2)nc2ccccc21

RP-LC retention time [s] | Structure (SMILES)
617 | CCNC(=O)C1CCc2sc(C(=O)N(C)C)cc2C1 (centres undefined)
859 | COc1ccccc1Nc1c(-c2ccc3c(c2)OCO3)nc2cnccn12
1020 | CCOC(=O)c1cnn(-c2ccc(C(=O)Nc3ccc(Br)cc3)cn2)c1N
754 | COc1ccc(OC)c(-c2ccc(SCC(=O)Nc3cc(C)no3)nn2)c1
726 | O=C1CCC2(C(=O)NCC3CC3)CCCC=C2N1c1ccccc1 (centres undefined)
1300 | Cc1ccc(C)c(N2CCN(S(=O)(=O)c3cc(-c4cc(C(F)(F)F)[nH]n4)sc3C)CC2)c1
1090 | Cc1ccc2c(c1)N(Cc1ccccc1F)N=C(C(=O)N1CCC(C)CC1)S2(=O)=O
749 | Cc1ccc(NC(=O)C2CC(=O)N(c3ccc4oc(C)nc4c3)C2)cc1 (centres undefined)
562 | Cc1cc(NCc2ccccn2)n2ncnc2n1
1150 | CCOC(=O)c1cnc2c(-c3ccc(Cl)cc3)c(COC)nn2c1N
666 | O=C(CCc1c(-c2ccccc2)nc2ccccn12)NC1CCCCCC1
856 | Cc1ccc(C2NC(=O)N(CC(=O)Nc3ccc4c(c3)CCC4)C3=C2C(=O)OC3)cc1 (centres undefined)
1070 | Cc1ccc(C)c(CS(=O)(=O)NCCc2cn(CC(C)C)c3ncccc23)c1
846 | C=CCN1C(=O)CC(Nc2ccc(CC)cc2)C1=O (centres undefined)
923 | CC(C)c1nc(-c2ccc(OC3CCN(C(=O)Cc4c[nH]c5ccccc45)C3)cc2)no1 (centres undefined)
691 | COc1ccc(C2Cn3cnc(C(=O)N4CCC(C(=O)NCCc5cccs5)CC4)c3CO2)cc1 (centres undefined)
736 | Cc1cc(F)ccc1NC(=O)C1CCN(C(=O)c2ncn3c2COC(c2ccc(F)cc2)C3)CC1 (centres undefined)
667 | O=C(c1ccsc1)N1CCCC(c2nncn2-c2ccccc2)C1 (centres undefined)
607 | CN1C(=O)c2ccccc2C(C(=O)NCc2ccccn2)C1c1cccs1 (centres undefined)
694 | COCCN1C(=O)[C@H]2CN(Cc3ccc(OC(F)(F)F)cc3)C[C@H]2C1=O
775 | COCCN1C(=O)Cc2ccccc2C1C(=O)NCc1ccccc1Cl (centres undefined)
1130 | CCOC(=O)c1cc(C)nc2c1c(=O)n(Cc1cccc(C)c1)c(=O)n2C

Structure (SMILES) | RP-LC retention time [s]
CCn1cc(C(=O)Nc2ccc(C)cc2)c2cccnc21 | 859

From the METLIN SMRT retention time set (Domingo-Almenara et al. 2019)
